Like-named read-outs stand apart in the source and are kept apart here.
Assays:
FXa = test system: FXa; design: method as in PMID 24412029, PMID 22216842; settings: cited from earlier work
thrombus = test system: thrombus; design: method as in PMID 24412029, PMID 22216842; settings: rat models, orally administered; cited from earlier work
Platelet poor plasma = test: Blood clotting time in vitro (APTT, PT, TT); assay type: biochemical, rats; settings: PT and TT tests, final concentration 0.05 mg/mL
Procedure: Rats were anaesthetized with 10% chloral hydrate (3 mL/kg). The blood obtained from the abdominal aorta was collected directly into citrated tubes containing 3.8% sodium citrate (1:9 (v/v)) and was used immediately after collection. Platelet poor plasma […] was prepared by centrifuging the blood at 3000 rpm for 20 min at 20 °C [24]. Plasma samples with jaundice, chylus, hemolysis and blood clot were excluded prior to the assays. Plasma mixtures were 90 μL of PRP with 10 μL of tested compounds (0.5 mg/mL, dissolved in DMSO). For PRP in the solvent group, the sample was 90 μL of PRP with 10 μL of DMSO. For PRP in the normal control group, the plasma was not-treated PRP sample. For PRP in the heparin group, the sample was 90 μL of PRP with 10 μL of heparin (0.1 mg/mL), which was used as the positive control drug.
Blood coagulation assays were carried out using a coagulation analyzer at the Blood Center clinical laboratory in the Second Hospital affiliated to Jilin University (Changchun, China). Measurements of APTT, PT and TT were performed according to the manufacturer’s recommended protocols. The anti-coagulant activity was expressed as clotting time ± standard deviation (S.D.). Briefly, for APTT assay, 50 μL of the plasma mixture was incubated at 37 °C for 60 s and the mixture was added to the APTT reagent (50 μL) and incubated at 37 °C for 15 min. Finally, APTT values were recorded. For the PT assay, 50 μL of the plasma mixture was incubated at 37 °C for 60 s and then added into the PT reagent (100 μL) prior to incubation at 37 °C for 15 min before the PT values were recorded. For the TT assay, 80 μL of the plasma mixture was incubated at 37 °C for 60 s before the addition of 80 μL of TT reagent for 100 s. TT values were determined by the coagulation analyzer.

[1] = target: T1, coagulation factor Xa (FXa) (Bos taurus, UniProt P00743); test: FXa activity assay in vitro (chromogenic substrate method); assay type: biochemical
T1 construct: purchased New England Biolabs (Hitchin, UK)
Procedure: 10 µL of FXa (final concentration of 0.5 nM), 40 µL of Tris buffer (adjusted to pH 7.4 with HCl containing 0.3 M NaCl and 50 mM Tris) and 10 µL of test compounds were added to the well, respectively. The negative control was performed using the same mixed solutions except that the test compound was replaced with DMSO. […] After 15 min of incubation at 37 °C, FXa substrate (40 μL, final concentration of […]) was added and then was incubated 37 °C for 25 min [3]. The optical density (OD) values at 405 nm were evaluated by an automated microplate reader. […] Inhibition rate was calculated by the following formula: Anti-FXa activity = (V0 − Vi)/V0 [21]. The IC50 value was subsequently calculated by SPSS 19.0.

blood coagulation = settings: 0.05 mg/mL final concentration vs 0.1 mg/mL heparin; cited from earlier work
human FIIa (thrombin) = target: T2, human FIIa (thrombin) (Homo sapiens, UniProt P00734); test: Thrombin inhibition in vitro (chromogenic substrate CS-01(38)); assay type: biochemical; settings: pH 7.4, 37 °C, 405 nm
T2 construct: purchased Hyphen BioMed (Paris, France)
Procedure: The inhibition of thrombin was evaluated by human FIIa and chromogenic substrate CS-01(38) in 96-well microtiter plates at room temperature. Compounds 5, 13 and 18 as well as the positive reagent Ximelagatran were dissolved in DMSO to a concentration of 1mM and then serially diluted to a range of 10 μM to 100 μM, respectively. 8 μL of FIIa (3 NIH U/mL), 80 μL of Tris buffer (adjusted to pH 7.4 with HCl) containing 0.3 M NaCl and 50 mM Tris and 8 μL of test compounds were added to the well, respectively. The negative control was performed using the same mixed solutions except that tested compounds were replaced with DMSO. The positive control was performed using the same mixed solutions except that the test compounds were replaced with ximelagatran. After incubation at 37 °C for 15 min, 12 μL of FIIa substrate solution (4 mM) was added and then incubated at 37 °C for 25 min [3]. The anti-FIIa activity was measured at 405 nm using a microplate reader.

[2] = FXa 0.5 nM, pH 7.4, 37 °C, OD 405 nm, read-out: IC50 against coagulation factor Xa (FXa)

T1 sequence (P00743 41-180): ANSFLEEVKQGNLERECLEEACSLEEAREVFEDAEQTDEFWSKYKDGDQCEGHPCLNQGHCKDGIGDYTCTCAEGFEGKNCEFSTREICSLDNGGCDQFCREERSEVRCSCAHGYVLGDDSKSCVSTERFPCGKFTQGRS
T1 sequence (P00743 234-492): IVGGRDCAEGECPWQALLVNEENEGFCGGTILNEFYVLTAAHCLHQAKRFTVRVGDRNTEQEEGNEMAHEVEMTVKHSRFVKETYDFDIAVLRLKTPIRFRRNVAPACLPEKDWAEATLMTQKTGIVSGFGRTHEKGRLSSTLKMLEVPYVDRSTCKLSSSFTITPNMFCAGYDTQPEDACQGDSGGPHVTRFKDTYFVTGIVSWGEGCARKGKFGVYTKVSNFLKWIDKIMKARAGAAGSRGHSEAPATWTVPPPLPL

Compound: CC1(C)[C@@H](O)CC[C@]2(C)[C@H]3C(=O)C=C4[C@@H]5C[C@@](C)(C(=O)O)CC[C@]5(C)CC[C@@]4(C)[C@]3(C)CC[C@@H]12 [glycyrrhetinic acid]
- Inhibition of FXa activity in vitro (FXa): significantly inhibit FXa activity in vitro with specificity
- Thrombus weight (thrombus): reduce thrombus weight

Compound: 20(R)-Rg3
- In vitro anti-coagulation activity versus normal control (Platelet poor plasma): insignificant anti-coagulation effects

Compound: CC(C)=CCC[C@](C)(O)[C@H]1CC[C@]2(C)[C@@H]1[C@H](O)C[C@@H]1[C@@]3(C)CC[C@H](O)C(C)(C)[C@@H]3[C@@H](O[C@@H]3O[C@H](CO)[C@@H](O)[C@H](O)[C@H]3O[C@@H]3O[C@@H](C)[C@H](O)[C@@H](O)[C@H]3O)C[C@]12C [Rg2, ginsenoside Rg2]
- IC50 [1, 2]: 136 nM
- Anti-coagulant activities in vitro compared to heparin (blood coagulation): significantly better anti-coagulant activities
- In vitro anti-coagulation activity versus normal control (Platelet poor plasma): best bioactivity (p < 0.01)
- IC50 (human FIIa (thrombin)): 81.3 µM

Compound: CC(C)=CCCC(C)(O)C1CCC2(C)C1C(O)CC1C3(C)CCC(O)C(C)(C)C3C(O)CC12C (centres unmarked) [PPT, protopanaxtriol]
- IC50 [1, 2]: 141 nM
- In vitro anti-coagulation activity versus normal control (Platelet poor plasma): best bioactivity (p < 0.01)
- IC50 (human FIIa (thrombin)): 82 µM

Compound: ginsenoside Rg3
- In vitro anti-coagulation activity versus normal control (Platelet poor plasma): best bioactivity (p < 0.01)

Compound: CC(C)=CCC[C@](C)(O[C@@H]1O[C@H](CO)[C@@H](O)[C@H](O)[C@H]1O)[C@H]1CC[C@]2(C)[C@@H]1[C@H](O)C[C@@H]1[C@@]3(C)CC[C@H](O[C@@H]4O[C@H](CO)[C@@H](O)[C@H](O)[C@H]4O)C(C)(C)[C@@H]3CC[C@]12C [F2, ginsenoside F2]
- IC50 [1, 2]: 425 nM
- In vitro anti-coagulation activity versus normal control (Platelet poor plasma): significant anti-coagulation activity

Compound: CC(C)=CCC[C@](C)(O)[C@H]1CC[C@]2(C)[C@@H]1[C@H](O)C[C@@H]1[C@@]3(C)CC[C@H](O[C@@H]4O[C@H](CO)[C@@H](O)[C@H](O)[C@H]4O)C(C)(C)[C@@H]3CC[C@]12C [Rh2, ginsenoside Rh2]
- IC50 [1]: 349 nM
- In vitro anti-coagulation activity versus normal control (Platelet poor plasma): significant anti-coagulation activity

Compound: CC(C)=CCC[C@](C)(O)[C@H]1CC[C@]2(C)[C@@H]1[C@H](O)C[C@@H]1[C@@]3(C)CC[C@H](O)C(C)(C)[C@@H]3[C@@H](O[C@@H]3O[C@H](CO)[C@@H](O)[C@H](O)[C@H]3O)C[C@]12C [Rh1, ginsenoside Rh1]
- IC50 [1]: 236 nM
- In vitro anti-coagulation activity versus normal control (Platelet poor plasma): significant anti-coagulation activity

Compound: CC(C)=CCCC(C)(O)C1CCC2(C)C1C(O)CC1C3(C)CCC(O)C(C)(C)C3CCC12C (centres unmarked) [PPD, protopanaxdiol]
- IC50 [1, 2]: 339 nM
- In vitro anti-coagulation activity versus normal control (Platelet poor plasma): significant anti-coagulation activity

Compound: CC(C)=CCC[C@](C)(O)[C@H]1CC[C@]2(C)[C@@H]1[C@H](O)C[C@@H]1[C@@]3(C)CC[C@H](O)C(C)(C)[C@@H]3[C@@H](O[C@@H]3O[C@H](CO)[C@@H](O)[C@H](O)[C@H]3O[C@@H]3O[C@H](CO)[C@@H](O)[C@H](O)[C@H]3O)C[C@]12C [Rf, ginsenoside Rf]
- IC50 [1, 2]: 1030 nM
- In vitro anti-coagulation activity versus normal control (Platelet poor plasma): insignificant anti-coagulation effects

Compound: CC(C)=CCC[C@](C)(O[C@@H]1O[C@H](CO)[C@@H](O)[C@H](O)[C@H]1O)[C@H]1CC[C@]2(C)[C@@H]1[C@H](O)C[C@@H]1[C@@]3(C)CC[C@H](O)C(C)(C)[C@@H]3[C@@H](O)C[C@]12C [F1, ginsenoside F1]
- IC50 [1, 2]: 227 nM
- In vitro anti-coagulation activity versus normal control (Platelet poor plasma): significant anti-coagulation activity

Compound: CC(C)=CCC[C@](C)(O[C@@H]1O[C@H](CO)[C@@H](O)[C@H](O)[C@H]1O)[C@H]1CC[C@]2(C)[C@@H]1[C@H](O)C[C@@H]1[C@@]3(C)CC[C@H](O)C(C)(C)[C@@H]3[C@@H](O[C@@H]3O[C@H](CO)[C@@H](O)[C@H](O)[C@H]3O)C[C@]12C [Rg1, ginsenoside Rg1]
- IC50 [1, 2]: 335 nM
- Anti-coagulant activities in vitro compared to heparin (blood coagulation): significantly better anti-coagulant activities
- In vitro anti-coagulation activity versus normal control (Platelet poor plasma): significant anti-coagulation activity
